Measured values published in patent US20250161312A1, “A METHOD FOR THE TREATMENT OF CHEMOTHERAPEUTIC DRUG-INDUCED NEPHROTOXICITY” (INSTITUT NATIONAL DE LA SANTÉ ET DE LA RECHERCHE MÉDICALE, priority 2022, published 2025).

Experiments:
[1] = tested on: LLC1 cells; assay: Caspase 3/7 activity in LLC1 cells; assay type: cell-based, mouse
Protocol: (§1) FIG. 7. […] Caspase 3/-7 activity (n=3 independent experiments) (A) and the number of γH2AX nuclear foci (n=36-63 nuclei/group) (B) were determined. […] Results are expressed as the mean±SEM (n=3 independent experiments). (E) Tail moment was assessed by comet assay. A total of 50 cells per condition were analyzed. *** P<0.001; 1-way ANOVA followed by Tukey's post hoc test. […] (I) KW6002 increased yH2AX expression in tumors from mice of the LLC1 syngeneic model. Quantification of nuclear yH2AX expression.
Cells were cultured in DMEM/F12 medium (Dulbecco's modified Eagle's medium and Ham's F12 medium, Thermo Fisher) supplemented with 1% penicillin/streptomycin, 5 pmol/L triiodo-L-thyronine, 10 ng/ml recombinant human epidermal growth factor, 3.5 μg/mL ascorbic acid, 5.0 μg/mL human transferrin, 5.0 μg/mL insulin, 25 ng/mL prostaglandin E1, 25 ng/ml hydrocortisone, 8.65 ng/mL sodium selenite, 0.1 mg/mL G418 and 1.2 g/L sodium bicarbonate (Sigma). Lewis lung carcinoma mouse LLC1 cells were cultured in DMEM glutamax (Thermo Fisher) containing 10% fetal calf serum and 1% penicillin/streptomycin. Cells were cultured at 37° C. in a humidified atmosphere of 5% CO2.
Apoptosis was assessed in RPTEC/hTERT and LLC1 cell lysates using the caspase-Glo 3/7 assay (Promega) according to manufacturer's recommendations.

[2] = tested on: H1975 cells; assay: γH2AX nuclear foci in H1975 cells; assay type: cell-based; settings: 50 μM cisplatin, 10 nM KW6002, 6 hours, FIG. 7F
Protocol: as §1

[3] = tested on: LLC1 tumors in C57BL6/J mice; assay: LLC1 in vivo tumor model (syngeneic, sub-chronic cisplatin)
Protocol: FIG. 1. Schematic representation of the different animal procedures. (A) Acute cisplatin-induced kidney injury. […] (B) Sub-chronic cisplatin-induced kidney injury. […] (C) KW-6002 administration schedule in the acute model. […] (D) KW-6002 administration schedule in the sub-chronic model.
LLC1 cells (Lewis Lung Cancer cells, ATCC® CRL-1642™) were cultured in DMEM with 10% fetal calf serum and penicillin-streptomycin. LLC1 cells ([…]) in PBS: matrigel (1:1, for a total volume of 100 μL) were subcutaneously injected in the right flank of animals. Tumors were measured twice a week with calipers and their volumes were estimated using the following equation: ½ (length×width2).
Prior sacrifice by cervical dislocation, retro-orbital blood samples were collected in heparinized tubes and centrifuged for 10 min at 2000 rpm at room temperature. Renal function was assessed by Blood urea nitrogen (BUN) measurement using a AU480 Chemistry Analyzer (Beckman Coulter). At the time of sacrifice, kidneys or LLC1 tumors were harvested and stored in either “RNA later” solution (Thermo Fisher), 4% neutral buffered formalin or snap-frozen in liquid nitrogen.
Paraffin-embedded sections (3 μm thick) were deparaffinized with xylene and rehydrated in successive ethanol dilutions. Then, antigen retrieval was done by incubation in sub-boiling 10 mM sodium citrate buffer. Tissues were permeabilized in a 0.4% Triton X-100 solution, and nonspecific binding was blocked with a 5% BSA solution in TBS for 2 hours. Sections were then incubated overnight with an anti-γH2AX antibodies (1:50; no. 9718, Cell Signaling Technology). After washing, the secondary antibody (A10042) was incubated for 45 minutes at room temperature. Again, after washing, the nuclei were stained with a 300 nM DAPI solution (D1306, Life Technologies, Thermo Fisher Scientific). The slides were analyzed using a Zeiss LSM 880 confocal microscope. Quantification was performed using ImageJ. For immunofluorescence studies in free-floating sections, mice were deeply anesthetized with pentobarbital sodium (50 mg/kg, i.p.) and then transcardially perfused with cold NaCl (0.9%) and 4% paraformaldehyde in PBS (pH 7.4). Kidneys were removed, post-fixed for 24 hours in 4% paraformaldehyde, and cryoprotected in 30% sucrose before being frozen at −40° C. in isopentane (methyl-butane) and stored at −80° C. Longitudinal kidney sections (40 μm) were obtained using a Leica cryostat. Free-floating sections were stored in PBSazide (0.2%) at 4° C. Longitudinal kidney sections were incubated with a donkey serum (D9663, MilliporeSigma) at 10% in PBS Triton X-100 (0.2%) for 1 hour and then incubated with anti-A2AR primary antibody (1:50; GP-Af1000, Frontiers Institute) for 72 hours at 4° C. in Signal Boost (8114, Cell Signaling Technology). Alexa Fluor 568-conjugated secondary antibodies (1:500; Life Technologies, Thermo Fisher Scientific) were incubated overnight at room temperature. Lectin staining was performed by incubating sections for 1 hour at room temperature with Lotus tetragonolobus FITC conjugate (Vector Laboratories, FL-1321-2) diluted to 2 μg/mL in blocking medium. Sections were counterstained with DAPI (1:5,000; no. 62247, Thermo Fisher Scientific) and mounted on superfrost slides and left to dry. Then, they were covered with Vectashield Vibrance Antifade Mounting Medium (H-1700, Vector Laboratories). Images were acquired using a Zeiss LSM 710 confocal laser-scanning microscope at ×20 magnification. 3D reconstruction of confocal image stacks was performed using Imaris software (Bitplane).
Reverse transcription was performed on 1 μg of RNA using high-capacity cDNA reverse transcription kit (Thermo Fisher), according the manufacturer's recommendation. Real time PCR was performed on a StepOne device using Taqman Gene Expression Master Mix (Thermo Fisher), following manufacturer's recommendations. […]

CCn1c(=O)c2c(nc(/C=C/c3ccc(OC)c(OC)c3)n2C)n(CC)c1=O [KW-6002, 8-[(E)-2-(3,4-dimethoxyphenyl)vinyl]-1,3-diethyl-7-methyl-3,7-dihydro-1H-purine-2,6-dione]
apoptosis: caspase 3/-7 activity ([1]; 2 μM cisplatin, 10 Nm KW6002, 24 hours, FIG. 7A): even potentiated the efficacy of cisplatin | LLC1 sensitivity to cisplatin, including apoptosis and/or DNA damage ([1]; in vitro, data not shown): likely increases LLC1 sensitivity to cisplatin | DNA damage: yH2AX nuclear foci [2]: increased number of H2AX+ cells | cisplatin accumulation (platinum levels) in the kidney ([3]; KW-6002-treated mice, FIG. 4A): lowered | cisplatin accumulation (platinum levels) in the tumors ([3]; KW-6002-treated mice, FIG. 4B): remained unchanged | anti-tumoral response to cisplatin (tumor size) ([3]; co-treatment with cisplatin, FIG. 3): did not compromise the anti-tumoral response to cisplatin | cisplatin-induced DNA damage, H2AX+ cells in tumors ([3]; in vivo LLC1 syngeneic model): increased number of H2AX+ cells | expression of some efflux transporters in kidneys ([3]; qPCR, FIG. 4A): significantly increased | transporter expression in tumors ([3]; qPCR, FIG. 4B): no expression changes | ability to protect from cisplatin-induced kidney injury ([3]; tumor-bearing mice): preserved
